Data as given in patent publication US8395037B2, “Pharmaceutical compositions for treating/preventing motor organ diseases” (Mitsubishi Corporation, priority 2005, dated 2013).

What was measured:
[1] = Lubricating effect: pendulum-type dynamic friction coefficient measurement; assay type: physicochemical; settings: for Dynamic friction coefficient: room temperature, mean of three
Description: Lubricating effect of fullerene was examined using three different solutions. 20 ml each of the solutions of (A) osteoarthritis patient-derived synovial fluid, (B) 50% polyethylene glycol solution, and (C) joint function-improving agent (hyaluronic acid formulation) were prepared, and dispensed into two tubes at 10 ml each. One 10 ml solution was mixed with fullerene (C60) to adjust the final concentration to 1.0 μM. The other 10 ml solution was used as a control solution. The dynamic friction coefficients of the respective solutions at room temperature were measured three times by a pendulum-type dynamic friction coefficient measuring apparatus (Japan Lubricating Oil Society), and the mean values were calculated. The dynamic friction coefficients were compared between the fullerene solutions and the control solutions.

[2] = test system: osteoarthritis model animals (rabbits); test: Osteoarthritis rabbit model, intraarticular water-solubilized fullerene 0.1 to 40.0 μM, safranin O cartilage degeneration; assay type: in vivo; settings: for Efficacy on cartilage degeneration (rabbits responding): eight-week administration
Description: Various concentrations (0.1, 1.0, 10.0, or 40.0 μM) of water-solubilized fullerene (cyclodextrin clathrate C60) was injected into the right knee joints of osteoarthritis model animals (rabbits), and solvent alone was injected into the left knee joints as controls intraarticularly once a week. On the fourth or eighth week after the start of administration, the knees were dissected and stained with safranin O, to compare the degree of cartilage degeneration of medial and lateral tibia.
As described above, the therapeutic effect of the four-week or eight-week repetitive administration with water-solubilized fullerene was confirmed. Therefore, the therapeutic effect of a single administration of water-solubilized fullerene was also examined. Immediately after the preparation of an osteoarthritis rabbit model, a single dose of water-solubilized fullerene was administered. On the eighth week, articular cartilage tissue samples were prepared, and the therapeutic effect was examined.

[3] = General condition, organ histology and blood biochemical examination during eight-week administration; assay type: in vivo, rabbit
Description: In particular, in the eight-week administration, the inhibitory effect of water-solubilized fullerene on cartilage degeneration was more remarkable in the 1.0 μM and 10.0 μM administered groups rather than the 0.1 μM administered group. […] During the eight-week test period, decrease in body weight, insufficient feeding, hematuria, or abnormal hair coat was not observed in the experimental animals.
(§1) Sequential biochemical examinations of blood and synovial fluid were also performed (pre-administration and fourth- and eighth-week post-administration of water-solubilized fullerene). The observed biochemical examination items were (A) hepatic function (GOT and GPT), renal function (urea nitrogen and creatinine), and electrolytes (Na, K, and Cl), (B) extracellular matrix-degrading enzyme production ability (MMP-1, 3, and 13), and (C) cartilage matrix-synthesizing ability (proteoglycan). The items of (A) were measured by commercially available testing equipments and items of (B) and (C) were measured by ELISA method.

MMP-3 = MMP-3 concentration in synovial fluid of osteoarthritis model knee joints (ELISA); assay type: in vivo, rabbit; settings: various concentrations, sequential measurement, versus control knees
Description: as §1

proteoglycan = test: Proteoglycan concentration in synovial fluid of osteoarthritis model knee joints (ELISA); assay type: in vivo, rabbit; settings: sequential measurement
Description: as §1

[4] = test system: osteoarthritis model (rabbit); test: Comparative test of water-solubilized fullerene and hyaluronic acid formulation in osteoarthritis model; assay type: in vivo; settings: 1.0 μM, 2.0 ml/rabbit, eighth week; compared with hyaluronic acid formulation
Description: The medicinal effect of water-solubilized fullerene (cyclodextrin clathrate C60) was examined comparatively with a known articular function-improving agent (the hyaluronic acid formulation Suvenyl (registered trademark)). Specifically, the effects at the eighth week after the start of treatment on rabbits in the following five groups (A) to (E) were examined. Each group consisted of four rabbits and the administration dosage was 2.0 ml/rabbit in all groups.
Test groups: (A) Sham-operation, group administered with Suvenyl; (B) Sham-operation, group administered with 50% polyethylene glycol; (C) Osteoarthritis model, group administered with 1.0 μM water-solubilized fullerene; (D) Osteoarthritis model, group administered with 50% Suvenyl; (E) Osteoarthritis model, group administered with 1.0 μM water-solubilized fullerene and Suvenyl.

[5] = 1 μM in 50% polyethylene glycol
[6] = 1 μM in hyaluronic acid formulation
[7] = 1 μM in osteoarthritis patient-derived synovial fluid

c12c3c4c5c1c1c6c7c2c2c8c3c3c9c4c4c%10c5c5c1c1c6c6c%11c7c2c2c7c8c3c3c8c9c4c4c9c%10c5c5c1c1c6c6c%11c2c2c7c3c3c8c4c4c9c5c1c1c6c2c3c41 [C60, fullerene (C60)]
Friction coefficient decreasing rate to control solution [1, 5]: 25%
Dynamic friction coefficient [1, 5]: 0.104
Friction coefficient decreasing rate to control solution [1, 6]: 42%
Dynamic friction coefficient [1, 6]: 0.116
Friction coefficient decreasing rate to control solution [1, 7]: 37%
Dynamic friction coefficient [1, 7]: 0.111

cyclodextrin clathrate C60 [water-solubilized fullerene]
Cartilage degeneration inhibitory effect across doses ([2]; 0.1 μM to 40 μM, four-week administration): almost equivalent
Efficacy on cartilage degeneration (rabbits responding) ([2]; 0.1 μM): a mild efficacy in all four rabbits
Efficacy on cartilage degeneration (rabbits responding) ([2]; 1.0 μM): a moderate efficacy in two rabbits and a remarkable efficacy in one rabbit out of a total of four
Efficacy on cartilage degeneration (rabbits responding) ([2]; 10.0 μM): a remarkable efficacy in three rabbits out of a total of four
Efficacy on cartilage degeneration (rabbits responding) ([2]; 40.0 μM): a mild efficacy in one rabbit and moderate efficacy in another rabbit out of a total of three
Inhibitory effect on articular cartilage degeneration ([2]; 0.1, 1.0, 10.0 or 40.0 μM intraarticular once a week, four-week and eight-week administration): confirmed at the respective concentrations
Inhibitory effect on cartilage degeneration after single administration ([2]; single dose immediately after model preparation, eighth week, versus control knees): no clear inhibitory effect on cartilage degeneration was observed
Decrease in body weight, insufficient feeding, hematuria, abnormal hair coat ([3]; eight-week test period): not observed
Optical microscopic observation of organs other than the joints (brain, lung, liver, kidney, adrenal, testis) ([3]; eight-week test period): no findings showing degeneration in the respective tissues
Hepatic function, renal function, electrolyte balance ([3]; pre-administration, fourth and eighth week post-administration): not significantly changed
MMP-3 concentration in synovial fluid (MMP-3): not clear
Proteoglycan concentration in synovial fluid (proteoglycan): not clear
Inhibitory effect on the production of cartilage matrix-degrading enzymes (MMPs) [4]: more remarkable effects than the hyaluronic acid formulation
Producing/maintaining effect of proteoglycan [4]: more remarkable effects than the hyaluronic acid formulation
